Source: patent US8435957B2, “Use of lignan compound for anti-wrinkle treatment” (Biocare Co., Ltd., priority 2007, dated 2013)

Assays:
[1] = test system: matrix metalloproteinase-1 (MMP-1); test: Western blot of matrix metalloproteinase-1 (MMP-1) expression in fibroblasts radiated with UV light; type: cell-based, human; details: for inhibition of expression of matrix metalloproteinase-1: UV 20 J/cm^2, given as 'higher than the negative control'; for expression of matrix metalloproteinase-1, result in words: 3, 5 and 10 μM, versus UV 20 J/cm^2 positive control, FIG. 3, FIG. 4; for inhibition at 3 µM / inhibition at 5 µM / inhibition at 10 µM: Homo sapiens, Fibroblast, light or radiation study, compared with UV 20 J/cm^2 treated positive control group, read-out: matrix metalloproteinase-1 (MMP-1) inhibitory activity effect
Method: Fibroblasts were cultured in a 60-mm dish at a concentration of 2×10^5 cells/ml to a confluence of about 85%. Before UV radiation, the medium was removed, and the cells were washed with PBS to remove a serum component therefrom, and then radiated with UV light at a dose of 20 J/cm^2. After the fibroblast cells were radiated with UV light, the cells were treated with each of the samples and cultured with serum free DMEM for 48 hours.
In order to measure the expression levels of matrix metalloproteinase-1 (MMP-1), Western blot was used, and the amount of total protein in the medium containing the fibroblasts cultured therein was quantified using the Bradford method.
The extracted protein was electrophoresed on 10% SDS-polyacrylamide gel, and then transferred to a nitrocellulose membrane. The membrane was blocked with 5% skim milk at room temperature for 1 hour in order to prevent it from being contaminated with other unknown proteins. Primary antibody to matrix metalloproteinase-1 was diluted in a blocking solution at a ratio of 1:1000 and allowed to react with the membrane at room temperature for 2 hours. After the primary antibody reaction, the membrane was washed three times with Tris-buffer saline Tween 20 (TBST) with shaking for 10 minutes each time. Secondary antibodies recognizing the primary antibodies to matrix metalloproteinase-1 was diluted in 5% skim milk at a ratio of 1:1000 and allowed to react with the membrane at room temperature for 1 hour. Then, the membrane was washed three times with tris-buffer saline Tween 20 with shaking for 10 minutes each time in the same manner as in the case of the primary antibody reaction, and then was developed by chemiluminescence.

[2] = test system: human normal fibroblasts; test: MTT assay, cell proliferation effect in fibroblasts; type: cell-based; details: 48 h serum-free culture, untreated medium as control
Method: In order to examine a cell proliferation effect proving the effect of reducing skin wrinkles, an MTT assay (3-(4,5-dimethylthiazol-2-yl)-2,5-diphenyl tetrazolium bromide reduction method) was carried out using fibroblasts.
First, human normal fibroblasts were plated into a 96-well plate at a concentration of 2×10^5 cells/well and primarily cultured in 10% FBS (fetal bovine serum)-containing DMEM medium in conditions of 37° C. and 5% CO2 for 24 hours. After the primary culture, the cells were treated with varying concentrations of the inventive sample. Then, the medium was replaced with a serum-free medium, and the cells were secondarily cultured for 48 hours. After the secondary culture step, 100 μl of MTT solution was added to the medium. Then, the resulting solution was left to stand for 4 hours, and then the medium was removed. 100 μl of dimethyl sulfoxide solution was added to each well and stirred for 20 minutes, and then the absorbance of each well at 540 nm was measured with a microplate reader.
According to the method of Example 2, the cell proliferation effects of 75% methanol extract of the aril of nutmeg and fragrin A and austobailignan 7 which are isolated and purified thereof were measured. In the MTT assay, a culture medium not treated with the sample was used as a control group and measured for absorbance, and the analysis results are shown in Table 3 below.

[3] = test system: hairless mouse (Skh; HR-1); test: In vivo anti-wrinkle effect, skin application, skin replica; details: applied to skin: 50 μl of 6% (w/v) nutmeg extract or 20 mM macelignan; versus UV positive group; FIG. 7
Method: (§1) 6-week hairless mouse (Skh; HR-1) have a quarantine period for 1 week before experiment, and cared maintaining temperature with 23±3° C., relative humidity with 50±5° C., and 12 hours of day/night cycle (07:00-19:00/day time). They were fed with feed for mouse, and tap water. UV irradiations were performed 3 times per week in the same time, the amount of the UV irradiations were 50 mJ/cm^2 on 1st week, 100 mJ/cm^2 on 2nd week, 200 mJ/cm^2 on 3rd week, and 250 mJ/cm^2 on 4th and after 4th weeks. The groups were divided into 4 groups. Those were control, UV control, UV/nutmeg and UV/macelignan.
50 μl of 6% (w/v) of nutmeg extract and 20 mM macelignan solution were applied for the experiment. For the experiment, nutmeg extract and macelignan were disolved in ethanol:polyethylene glycol (7:3, v/v).
In FIG. 7, A is the normal group, B is the UV irradiated group, C is the nutmeg applying group, and D is the macelignan applying group.

[4] = test system: hairless mouse (Skh; HR-1); test: In vivo anti-wrinkle effect, oral administration, skin replica; details: oral: 200 mg/kg nutmeg or 20 mg/kg macelignan; versus UV positive group; FIG. 8
Method: as §1, with “UV/macelignan. 200 mg/kg of nutmeg and 20 mg/kg of macelignan were administered respectively by oral. For the experiment, nutmeg extract and macelignan were disolved in 0.25% CMC (carboxyl methyl celluose) solution.” for “UV/macelignan.”
In FIG. 8, A is the normal group, B is the UV irradiated group, C is the nutmeg administering group, and D is the macelignan administering group.

Row | Structure (SMILES) | inhibition of expression of matrix metalloproteinase-1 ([1]; 10 μM) | inhibition of expression of matrix metalloproteinase-1 ([1]; 10 μg/ml) | Proliferation effect (%) ([2]; 3 μg/ml) | Proliferation effect (%) ([2]; 5 μg/ml) | Proliferation effect (%) ([2]; 10 μg/ml) | expression of matrix metalloproteinase-1, result in words [1] | effect on reducing wrinkle (skin replica), result in words [3] | effect on inhibiting wrinkle (skin replica), result in words [4] | inhibition at 3 µM [1] | inhibition at 5 µM [1] | inhibition at 10 µM ([1]; 10 μM)
1 | O=C1O[C@H]([C@@H](O)CO)C(O)=C1O [vitamin-C, reference compound] | 20% | 20% |  |  |  |  |  |  |  |  | 
2 | C=CCc1cc(OC)c(OC(C)Cc2ccc(O)c(OC)c2)c(OC)c1 (centres unmarked) [fragrin A, 2-(4-allyl-2,6-dimethoxyphenoxy)-1-(4-hydroxy-3-methoxyphenyl)-propane] | 65% |  | 101% | 104% | 108% | inhibited the expression of matrix metalloproteinase-1 with dose-dependent manners |  |  |  |  | 
3 | COc1cc([C@@H]2OC(c3ccc4c(c3)OCO4)[C@@H](C)[C@@H]2C)ccc1O (some centres unmarked) [austobailignan 7, austrobailignan-7] | 65% |  | 104% | 105% | 110% | inhibited the expression of matrix metalloproteinase-1 with dose-dependent manners |  |  |  |  | 
4 | COc1cc(C[C@H](C)[C@H](C)Cc2ccc3c(c2)OCO3)ccc1O [macelignan] |  |  |  |  |  |  | inhibited wrinkle | inhibited wrinkle | 31% | 42% | 63%
5 | C/C=C/c1cc(OC)c2c(c1)[C@@H](C)C(c1ccc3c(c1)OCO3)O2 (some centres unmarked) [licarin E] |  |  |  |  |  |  |  |  | 35% | 47% | 73%
